Measured values: patent US4218439A, “Peptide which inhibits gonadal function” (The Salk Institute for Biological Studies, priority 1978, dated 1980)

Legend:
male mammals = test: effective dosage level and recovery after cessation of 7-day treatment; assay type: in vivo
Source text: The peptide is used at a level effective to prevent reproduction by male mammals. It has been determined that the peptide of the invention is effective at levels as low as 0.5 microgram per kilogram of body weight per day for 7 days to reduce testes and seminal vesicle weights. […] Prostate weights recover in 2 weeks and seminal vesicle weights in 4 weeks. It is preferred to use dosage levels in the range of from about 0.5 to about 50 micrograms per kilogram of body weight per day. Higher levels can be used but no significant benefit is attained through use of higher levels.

male rats [1] = test: treatment of male rats with the peptide once a day: organ weights, plasma hormones, histology, fertility; assay type: in vivo, rat; details: 10 μG peptide for 15 days (Table I)
[2] = tested on: release of gonadotropins by the pituitary gland; test: potency of the peptide compared with LRF; details: times more potent than LRF
Source text: The peptide can be used as a contraceptive for male mammals. The peptide can be administered by any suitable and convenient method, such as orally, by injection or subcutaneously. The peptide can be combined with suitable pharmaceutically acceptable carriers or diluents, such as vegetable oil, sugars, polysaccharides and gums.

male rats [3] = test: treatment of male rats with the peptide once a day: organ weights, plasma hormones, histology, fertility; assay type: in vivo, rat
Source text: It has been determined that the treatment of male rats with 10 micrograms of the peptide once a day for 7 days results in a decrease in testis and seminal vesicle weight, spermatogenesis and plasma androgen levels. However, immunoreactive gonadotropin levels in the treated male animals were elevated relative to control animals.

female rats = details: large and frequent dosages; cited from earlier work
[4] = tested on: release of luteinizing hormone and other gonadotropins by the pituitary gland; details: compared with Gly6 peptide; cited from earlier work
[5] = following cessation of treatment for 7 days
[6] = following cessation of the injections
[7] = male rats, 10 micrograms once a day for 7 days

CCNC(=O)[C@@H]1CCCN1C(=O)[C@H](CCCNC(=N)N)NC(=O)[C@H](CC(C)C)NC(=O)[C@@H](Cc1c[nH]c2ccccc12)NC(=O)[C@H](Cc1ccc(O)cc1)NC(=O)[C@H](CO)NC(=O)[C@H](Cc1c[nH]c2ccccc12)NC(=O)[C@H](Cc1c[nH]cn1)NC(=O)[C@@H]1CCC(=O)N1 [peptide, p--Glu--His--Trp--Ser--Tyr--D--Trp--Leu--Arg--Pro--NH--CH2 --CH3]
time for prostate weights to recover (male mammals; [5]): 2 weeks
time for seminal vesicle weights to recover (male mammals; [5]): 4 weeks
time until testosterone levels comparable to those of control animals (male mammals; [5]): one
level effective to reduce testes and seminal vesicle weights (male mammals; for 7 days): ≤ 0.5 microgram per kilogram of body weight per day
Plasma DHT (male rats [1]): 151 ng/mL
Plasma FSH (male rats [1]): 1582 ng/mL
Plasma LH (male rats [1]): 561 ng/mL
Plasma Test. (male rats [1]): 229 ng/mL
Wt. Sem. V. (male rats [1]): 0.18 Grams
Wt. Testis (male rats [1]): 1.33 Grams
potency relative to LRF [2]: about 150 times
ability to cause fertilization (male rats [3]; [6]): incapable of causing fertilization
ability to effect coitus (male rats [3]; [6]): capable of effecting coitus
histological examination of the testes (male rats [3]; following the 7-day treatment, up to several weeks following cessation of daily injections): tubular damage, arrested spermatogenesis and degenerated Sertoli cells
immunoreactive gonadotropin levels relative to control animals (male rats [3]; [7]): elevated
testis and seminal vesicle weight, spermatogenesis and plasma androgen levels (male rats [3]; [7]): decrease

p--Glu--His--Trp--Ser--Tyr--Gly--Leu--Arg--Pro--Gly--NH2 (EHWSYGLRPG; pyroglutamyl N-terminus, C-terminal amide; printed: Glu--His--Trp--Ser--Tyr--Gly--Leu--Arg--Pro--Gly--) [LRF, hypothalamic hormone which acts as a releasing factor for LH; decapeptide]
effect on gonadal function (female rats): inhibit gonadal function

p--Glu--Trp--Ser--Tyr--D--Ala--Leu--Arg--Pro--Gly--NH2
potency as an inhibitor for the release of gonadotropins relative to the same peptide with Gly in the 6-position [4]: 3 times
